In patent publication US20230217926A1, “SELECTIVE HERBICIDES BASED ON SUBSTITUTED ISOXAZOLIN CARBOXAMIDES AND ISOXADIFEN-ETHYL” (BAYER AKTIENGESELLSCHAFT, priority 2020, published 2023):

How the values were obtained:
HORVS Montoya [1] = test: Safener seed treatment, pre-emergence herbicide, crop damage; assay type: in vivo, spring barley; parameters: key to Reduction [Difference]: % crop damage without safener minus % damage with safener; conditions: HER 15 g a.i./ha pre-emergence; for Reduction [%] / Reduction [Difference]: isoxadifen-ethyl 0.25 g a.i./kg seed; for HER effect + SAF: isoxadifen-ethyl seed treatment 0.25 g a.i./kg seed; for HER effect: no safener
Experimental: (§1) For the safener seed treatment, sufficient seeds of the respective crops (spring wheat, TRZAS; spring barley, HORVS; maize, ZEAMA) were weighed into screw top glass bottles approximately twice the volume of the seeds.
(§2) The specified safeners, formulated as wettable powder (WP) were weighed out so that the specified rates (g a.i./kg seed) would be obtained, dissolved in water (1 ml water per 10 g of seeds), and added to the seeds to produce a slurry.
(§3) The bottles were capped and then placed in an overhead shaker (set at medium speed for ca. 60 minutes) so that the seeds were evenly coated with the slurry. The bottles were uncapped and the seeds were either placed on paper and dried for an interval of 3-4 hours prior to sowing, or directly sown. Seeds were placed in sandy loam soil in pots of a diameter of 7-8 cm, and covered with soil.
(§4) Pre-emergence application of the specified herbicides was done subsequently, on two sets of plants: a) seed treatment with safener, as described above
(§5) The herbicides were formulated as WP and was sprayed onto the soil surface as an aqueous suspension at an equivalent water application rate of 300 l/ha.
(§6) After application, the test plants were kept in the greenhouse under good growth conditions. At intervals up to 4 weeks after application (=28 days after treatment; DAT), % crop damage observed on the treated plants was scored visually in comparison to control plants that had not received any safener or herbicide treatment.
(§7) Values in the table below are mean values of at least 2 replicates.
Reduction[Difference]=herbicide damage without safener−herbicide damage with safener Reduction[%]=(Reduction[Difference]*100)/herbicide damage without safener b) Plant Species, Variety: HORVS Montoya, Safener (SAF): Isoxadifen-Ethyl

HORVS Montoya [2] = test: Tank-mix post-emergence crop damage, greenhouse, visual assessment; assay type: in vivo, spring barley; conditions: 10 DAT; for Reduction [%] / Reduction [Difference]: isoxadifen-ethyl 50 g a.i./ha; for HER effect: no safener
Experimental: (§8) Seeds of crops (spring wheat, TRZAS; spring barley, HORVS; maize, ZEAMA) were placed in sandy loam soil in peat pots, covered with soil and cultivated in a greenhouse under good growth conditions. Two to three weeks after sowing, the test plants were treated at the 1 to 3-leaf stage. The herbicide/safener active compound combinations according to the invention, formulated as wettable powders or emulsion concentrates, and, in parallel tests, the correspondingly formulated individual active compounds were sprayed onto the green parts of the plants in various dosages using an amount of water of 300 l/ha (converted).
(§9) The pots were returned under good growing conditions in a glasshouse and a visual assessment of herbicidal effects was made at intervals from 1 to 3 weeks after herbicide application (DAT=days after treatment). Assessment was on a percentage basis in comparison with untreated control plants (0%=no injury, 100%=complete kill).
(§10) Reduction[Difference]=herbicide damage without safener−herbicide damage with safener Reduction[%]=(Reduction[Difference]*100)/herbicide damage without safener
c) Plant Species, Variety: HORVS Montoya, Safener (SAF): Isoxadifen-Ethyl

TRZAS Triso [3] = test: as above; assay type: in vivo, spring wheat; conditions: 21 DAT; for Reduction [%] / Reduction [Difference]: isoxadifen-ethyl 50 g a.i./ha; for HER effect: no safener
Experimental: as §8, §9, §10
5d) Plant Species, Variety: TRZAS Triso, Safener (SAF): Isoxadifen-Ethyl

ZEAMA Sileno [4] = test: Safener seed treatment, pre-emergence herbicide, crop damage; assay type: in vivo, maize; parameters: key to Reduction [Difference]: % crop damage without safener minus % damage with safener; conditions: for Reduction [%] / Reduction [Difference]: isoxadifen-ethyl 0.25 g a.i./kg seed; for HER effect + SAF: isoxadifen-ethyl seed treatment 0.25 g a.i./kg seed; for HER effect: no safener
Experimental: as §1, §2, §3, §4, §5, §6, §7
Reduction[Difference]=herbicide damage without safener−herbicide damage with safener Reduction[%]=(Reduction[Difference]*100)/herbicide damage without safener […]
c) Plant Species, Variety: ZEAMA Sileno, Safener (SAF): Isoxadifen-Ethyl

ZEAMA Sileno [5] = test: Tank-mix post-emergence crop damage, greenhouse, visual assessment; assay type: in vivo, maize; parameters: key to Reduction [Difference]: % points: herbicide damage without safener − damage with safener; conditions: for HER effect + SAF / Reduction [%] / Reduction [Difference]: Final; for HER effect: no safener, Final assessment
Experimental: as §8, §9, §10
a) Plant Species, Variety: ZEAMA Sileno, Safener (SAF): Isoxadifen-Ethyl

TRZAS Triso [6] = test: Safener seed treatment, pre-emergence herbicide, crop damage; assay type: in vivo, spring wheat; parameters: key to Reduction [Difference]: % crop damage without safener minus % damage with safener; conditions: for Reduction [%] / Reduction [Difference]: isoxadifen-ethyl 0.25 g a.i./kg seed; for HER effect + SAF: isoxadifen-ethyl seed treatment 0.25 g a.i./kg seed; for HER effect: no safener
Experimental: as §1, §2, §3, §4, §5, §6, §7
Reduction[Difference]=herbicide damage without safener−herbicide damage with safener Reduction[%]=(Reduction[Difference]*100)/herbicide damage without safener a) Plant Species, Variety: TRZAS Triso, Safener (SAF): Isoxadifen-Ethyl

[7] = HER 0.25 g a.i./ha + isoxadifen-ethyl 50 g a.i./ha
[8] = HER 40 g a.i./ha pre-emergence, 14 DAT
[9] = HER 2 g a.i./ha + isoxadifen-ethyl 50 g a.i./ha
[10] = HER 2 g a.i./ha, isoxadifen-ethyl 50 g a.i./ha
[11] = HER 5 g a.i./ha pre-emergence, 11 DAT (Interim)
[12] = HER 5 g a.i./ha pre-emergence, 21 DAT (Final)
[13] = HER 8 g a.i./ha, isoxadifen-ethyl 50 g a.i./ha
[14] = HER 32 g a.i./ha, isoxadifen-ethyl 100 g a.i./ha
[15] = HER 15 g a.i./ha pre-emergence, 11 DAT (Interim)
[16] = HER 0.5 g a.i./ha + isoxadifen-ethyl 50 g a.i./ha
[17] = HER 40 g a.i./ha pre-emergence, 26 DAT
[18] = HER 80 g a.i./ha pre-emergence, 14 DAT
[19] = HER 80 g a.i./ha pre-emergence, 26 DAT
[20] = HER 15 g a.i./ha pre-emergence, 21 DAT (Final)

SMILES: C=CC1(C(=O)NC2COC(C(=O)OC)C2)CC(c2cc(F)cc(F)c2)=NO1 (mixture of isomers) [Example 1.68]
- Reduction [%] (HORVS Montoya [1]; 11 DAT (Interim)): 31%
- Reduction [Difference] (HORVS Montoya [1]; 11 DAT (Interim)): 20
- HER effect + SAF (HORVS Montoya [1]; 11 DAT (Interim)): 45%
- HER effect (HORVS Montoya [1]; 11 DAT (Interim)): 65%
- HER effect + SAF (HORVS Montoya [2]; [7]): 0%
- Reduction [%] (HORVS Montoya [2]; HER 0.25 g a.i./ha): 100%
- Reduction [Difference] (HORVS Montoya [2]; HER 0.25 g a.i./ha): 20
- HER effect (HORVS Montoya [2]; HER 0.25 g a.i./ha): 20%
- HER effect + SAF (TRZAS Triso [3]; [7]): 20%
- Reduction [%] (TRZAS Triso [3]; HER 0.25 g a.i./ha): 50%
- Reduction [Difference] (TRZAS Triso [3]; HER 0.25 g a.i./ha): 20
- HER effect (TRZAS Triso [3]; HER 0.25 g a.i./ha): 40%
- HER effect + SAF (TRZAS Triso [3]; HER 1 g a.i./ha + isoxadifen-ethyl 50 g a.i./ha): 70%
- Reduction [%] (TRZAS Triso [3]; HER 1 g a.i./ha): 25%
- Reduction [Difference] (TRZAS Triso [3]; HER 1 g a.i./ha): 23
- HER effect (TRZAS Triso [3]; HER 1 g a.i./ha): 93%
- Reduction [%] (ZEAMA Sileno [4]; [8]): 25%
- Reduction [Difference] (ZEAMA Sileno [4]; [8]): 23
- HER effect + SAF (ZEAMA Sileno [4]; [8]): 70%
- HER effect (ZEAMA Sileno [4]; [8]): 93%
- HER effect + SAF (ZEAMA Sileno [5]; [9]): 25%
- Reduction [%] (ZEAMA Sileno [5]; [10]): 58%
- Reduction [Difference] (ZEAMA Sileno [5]; [10]): 35
- HER effect (ZEAMA Sileno [5]; HER 2 g a.i./ha, 0%=no injury, 100%=complete kill): 60%
- Reduction [%] (TRZAS Triso [6]; [11]): 44%
- Reduction [Difference] (TRZAS Triso [6]; [11]): 20
- Reduction [%] (TRZAS Triso [6]; [12]): 56%
- Reduction [Difference] (TRZAS Triso [6]; [12]): 25
- HER effect + SAF (TRZAS Triso [6]; [11]): 25%
- HER effect + SAF (TRZAS Triso [6]; [12]): 20%
- HER effect (TRZAS Triso [6]; [11]): 45%
- HER effect (TRZAS Triso [6]; [12]): 45%

SMILES: COC(=O)C1C=CC(NC(=O)C2(C(F)(F)F)CC(c3cccc(F)c3)=NO2)C1 (centres unmarked) [Example 1.18]
- Reduction [%] (HORVS Montoya [1]; 11 DAT (Interim)): 50%
- Reduction [Difference] (HORVS Montoya [1]; 11 DAT (Interim)): 20
- Reduction [%] (HORVS Montoya [1]; 21 DAT (Final)): 88%
- Reduction [Difference] (HORVS Montoya [1]; 21 DAT (Final)): 35
- HER effect + SAF (HORVS Montoya [1]; 11 DAT (Interim)): 20%
- HER effect + SAF (HORVS Montoya [1]; 21 DAT (Final)): 5%
- HER effect (HORVS Montoya [1]; 11 DAT (Interim)): 40%
- HER effect (HORVS Montoya [1]; 21 DAT (Final)): 40%
- Reduction [%] (ZEAMA Sileno [4]; [8]): 63%
- Reduction [Difference] (ZEAMA Sileno [4]; [8]): 25
- HER effect + SAF (ZEAMA Sileno [4]; [8]): 15%
- HER effect (ZEAMA Sileno [4]; [8]): 40%
- HER effect + SAF (ZEAMA Sileno [5]; HER 8 g a.i./ha + isoxadifen-ethyl 50 g a.i./ha): 25%
- Reduction [%] (ZEAMA Sileno [5]; [13]): 73%
- Reduction [Difference] (ZEAMA Sileno [5]; [13]): 69
- HER effect (ZEAMA Sileno [5]; HER 8 g a.i./ha): 94%
- HER effect + SAF (ZEAMA Sileno [5]; HER 32 g a.i./ha + isoxadifen-ethyl 100 g a.i./ha): 20%
- Reduction [%] (ZEAMA Sileno [5]; [14]): 79%
- Reduction [Difference] (ZEAMA Sileno [5]; [14]): 77
- HER effect (ZEAMA Sileno [5]; HER 32 g a.i./ha): 97%
- Reduction [%] (TRZAS Triso [6]; [15]): 67%
- Reduction [Difference] (TRZAS Triso [6]; [15]): 30
- HER effect + SAF (TRZAS Triso [6]; [15]): 15%
- HER effect (TRZAS Triso [6]; [15]): 45%

SMILES: C=CC1(C(=O)NC2C=CC(C(=O)OC)C2)CC(c2cc(F)cc(F)c2)=NO1 (centres unmarked) [Example 1.26]
- Reduction [%] (HORVS Montoya [1]; 21 DAT (Final)): 90%
- Reduction [Difference] (HORVS Montoya [1]; 21 DAT (Final)): 45
- HER effect + SAF (HORVS Montoya [1]; 21 DAT (Final)): 5%
- HER effect (HORVS Montoya [1]; 21 DAT (Final)): 50%
- HER effect + SAF (HORVS Montoya [2]; [16]): 10%
- Reduction [%] (HORVS Montoya [2]; HER 0.5 g a.i./ha): 75%
- Reduction [Difference] (HORVS Montoya [2]; HER 0.5 g a.i./ha): 30
- HER effect (HORVS Montoya [2]; HER 0.5 g a.i./ha): 40%
- HER effect + SAF (HORVS Montoya [2]; [9]): 50%
- Reduction [%] (HORVS Montoya [2]; HER 2 g a.i./ha): 29%
- Reduction [Difference] (HORVS Montoya [2]; HER 2 g a.i./ha): 20
- HER effect (HORVS Montoya [2]; HER 2 g a.i./ha): 70%
- HER effect + SAF (TRZAS Triso [3]; [16]): 10%
- Reduction [%] (TRZAS Triso [3]; HER 0.5 g a.i./ha): 75%
- Reduction [Difference] (TRZAS Triso [3]; HER 0.5 g a.i./ha): 30
- HER effect (TRZAS Triso [3]; HER 0.5 g a.i./ha): 40%
- Reduction [%] (ZEAMA Sileno [4]; [17]): 90%
- Reduction [Difference] (ZEAMA Sileno [4]; [17]): 45
- HER effect + SAF (ZEAMA Sileno [4]; [17]): 5%
- HER effect (ZEAMA Sileno [4]; [17]): 50%
- Reduction [%] (ZEAMA Sileno [4]; [18]): 36%
- Reduction [Difference] (ZEAMA Sileno [4]; [18]): 25
- Reduction [%] (ZEAMA Sileno [4]; [19]): 79%
- Reduction [Difference] (ZEAMA Sileno [4]; [19]): 55
- HER effect + SAF (ZEAMA Sileno [4]; [18]): 45%
- HER effect + SAF (ZEAMA Sileno [4]; [19]): 15%
- HER effect (ZEAMA Sileno [4]; [18]): 70%
- HER effect (ZEAMA Sileno [4]; [19]): 70%
- Reduction [%] (TRZAS Triso [6]; [15]): 31%
- Reduction [Difference] (TRZAS Triso [6]; [15]): 20
- Reduction [%] (TRZAS Triso [6]; [20]): 80%
- Reduction [Difference] (TRZAS Triso [6]; [20]): 60
- HER effect + SAF (TRZAS Triso [6]; [15]): 45%
- HER effect + SAF (TRZAS Triso [6]; [20]): 15%
- HER effect (TRZAS Triso [6]; [15]): 65%
- HER effect (TRZAS Triso [6]; [20]): 75%
